How the values were obtained:
Type in all cases: cell-based
[1] = target: T1, IKAROS (Homo sapiens, UniProt Q13422+Q96SW2); assay: IKAROS degradation assay (Western blot, MV-4-11 cells); settings: MV4-11, 6-8 h
T1 construct: endogenous in cells; host or cells: MV-4-11
Summary of the method: (§1)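 Western blot, infrared fluorescence read-out: % degradation versus DMSO after 6-8 h compound treatment of ~10^6 cells/mL. RIPA whole-cell lysates on 4-12% gels, nitrocellulose transfer. Binned A <25%, B 25–<50%, C 50–<75%, D ≥75%.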

[2] = target: T2, CK1α (Homo sapiens, UniProt P48729+Q96SW2); assay: CK1α degradation assay (Western blot, MV-4-11 cells); settings: MV4-11, 6-8 h
T2 construct: Whole cell extracts were prepared using RIPA buffer; endogenous in cells; host or cells: MV-4-11
T2 sequence (P48729 whole entry): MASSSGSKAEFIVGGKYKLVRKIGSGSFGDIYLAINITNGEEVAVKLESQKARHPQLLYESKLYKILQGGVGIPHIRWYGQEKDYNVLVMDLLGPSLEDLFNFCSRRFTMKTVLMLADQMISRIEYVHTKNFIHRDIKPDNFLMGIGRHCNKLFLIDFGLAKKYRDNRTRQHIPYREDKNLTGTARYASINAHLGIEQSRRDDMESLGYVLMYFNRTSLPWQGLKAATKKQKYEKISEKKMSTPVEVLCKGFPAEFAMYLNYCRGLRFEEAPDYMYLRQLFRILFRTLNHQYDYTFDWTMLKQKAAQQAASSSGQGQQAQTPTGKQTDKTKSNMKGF
T2 sequence (Q96SW2 whole entry): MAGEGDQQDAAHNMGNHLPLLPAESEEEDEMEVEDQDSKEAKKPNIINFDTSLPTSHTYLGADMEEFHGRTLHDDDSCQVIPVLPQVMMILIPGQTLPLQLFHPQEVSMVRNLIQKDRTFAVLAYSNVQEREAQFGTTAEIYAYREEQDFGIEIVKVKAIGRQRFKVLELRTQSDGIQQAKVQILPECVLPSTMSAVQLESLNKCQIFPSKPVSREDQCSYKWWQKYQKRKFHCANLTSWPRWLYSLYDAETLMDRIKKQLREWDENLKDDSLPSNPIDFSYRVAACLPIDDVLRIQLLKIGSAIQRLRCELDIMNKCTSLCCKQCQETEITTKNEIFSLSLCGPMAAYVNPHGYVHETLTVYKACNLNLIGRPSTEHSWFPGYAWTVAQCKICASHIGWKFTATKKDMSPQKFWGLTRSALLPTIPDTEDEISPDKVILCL
T2 sequence (Q16531 whole entry partner): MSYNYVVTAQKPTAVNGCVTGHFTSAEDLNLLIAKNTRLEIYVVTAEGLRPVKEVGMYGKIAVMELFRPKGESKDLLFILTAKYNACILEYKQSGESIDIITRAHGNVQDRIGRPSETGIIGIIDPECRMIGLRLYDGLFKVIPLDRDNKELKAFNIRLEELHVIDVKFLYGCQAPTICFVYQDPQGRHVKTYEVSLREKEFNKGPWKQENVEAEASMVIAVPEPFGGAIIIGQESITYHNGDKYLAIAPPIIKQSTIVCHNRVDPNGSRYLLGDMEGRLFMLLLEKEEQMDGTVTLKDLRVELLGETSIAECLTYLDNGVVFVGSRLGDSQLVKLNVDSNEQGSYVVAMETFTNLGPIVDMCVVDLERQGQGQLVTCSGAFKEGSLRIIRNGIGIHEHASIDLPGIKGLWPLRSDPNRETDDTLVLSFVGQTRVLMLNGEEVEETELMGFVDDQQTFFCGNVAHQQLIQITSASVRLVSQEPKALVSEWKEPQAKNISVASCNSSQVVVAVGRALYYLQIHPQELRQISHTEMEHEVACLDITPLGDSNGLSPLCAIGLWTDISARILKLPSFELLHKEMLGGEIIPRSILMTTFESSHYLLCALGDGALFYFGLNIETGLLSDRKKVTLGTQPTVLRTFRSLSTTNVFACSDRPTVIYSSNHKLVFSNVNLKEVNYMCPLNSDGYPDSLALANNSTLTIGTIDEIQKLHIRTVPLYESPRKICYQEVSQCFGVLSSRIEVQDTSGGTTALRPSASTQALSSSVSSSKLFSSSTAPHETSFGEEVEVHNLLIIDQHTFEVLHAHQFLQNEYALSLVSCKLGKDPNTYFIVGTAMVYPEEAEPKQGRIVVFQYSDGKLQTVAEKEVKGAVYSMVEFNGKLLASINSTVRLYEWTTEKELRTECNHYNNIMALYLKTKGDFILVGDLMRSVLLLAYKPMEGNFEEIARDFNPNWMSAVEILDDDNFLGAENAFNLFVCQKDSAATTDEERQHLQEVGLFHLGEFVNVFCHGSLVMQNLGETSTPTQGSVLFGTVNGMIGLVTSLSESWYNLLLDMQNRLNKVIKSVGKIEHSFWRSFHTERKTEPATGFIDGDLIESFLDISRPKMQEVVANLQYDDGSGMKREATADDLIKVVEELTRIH
Summary of the method: as §1

[3] = target: T3, GSPT1 (Homo sapiens, UniProt P15170+Q96SW2); assay: GSPT1 degradation assay (Western blot, MV-4-11 cells); settings: MV4-11, 6-8 h
T3 construct: Whole cell extracts were prepared using RIPA buffer; endogenous in cells; host or cells: MV-4-11
T3 sequence (P15170 whole entry): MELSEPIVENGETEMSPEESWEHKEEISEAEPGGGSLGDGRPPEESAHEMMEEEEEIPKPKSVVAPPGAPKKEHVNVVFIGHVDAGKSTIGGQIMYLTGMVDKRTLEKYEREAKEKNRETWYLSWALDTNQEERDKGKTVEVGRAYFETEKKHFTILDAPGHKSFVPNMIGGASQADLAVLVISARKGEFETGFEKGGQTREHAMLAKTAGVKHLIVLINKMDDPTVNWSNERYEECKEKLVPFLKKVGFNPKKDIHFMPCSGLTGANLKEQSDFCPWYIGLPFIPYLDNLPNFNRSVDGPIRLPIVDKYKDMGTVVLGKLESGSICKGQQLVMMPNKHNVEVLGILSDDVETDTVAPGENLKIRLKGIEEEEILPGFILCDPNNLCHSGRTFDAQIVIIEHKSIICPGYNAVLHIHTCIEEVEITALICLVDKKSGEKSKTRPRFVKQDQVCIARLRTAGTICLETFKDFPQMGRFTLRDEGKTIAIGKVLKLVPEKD
T3 sequence (Q96SW2 whole entry): as the sequence (Q96SW2 whole entry) above
T3 sequence (Q16531 whole entry partner): as the sequence (Q16531 whole entry partner) above
Summary of the method: as §1

[4] = system: IL-1β; assay: IL-1β inhibition assay, LPS-induced PBMCs / CD14+ monocytes (Meso Scale); settings: 1 h pretreatment, 100 ng/mL LPS 18-24 h
Summary of the method: (§2)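 Thawed human PBMCs or CD14+ mobilized peripheral blood monocytes, 200,000 cells/well in RPMI-1640/10% FBS, pretreated with compound or DMSO 1 h, then stimulated with 100 ng/mL LPS for 18-24 h. Supernatant cytokine measured by Meso Scale; % inhibition binned A–D (<50%, 50–70%, 70–90%, ≥90%), fold-change binned A–D (≤0.1, ≤0.5, ≤1, >1).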

[5] = system: IL-6; assay: IL-6 inhibition assay, LPS-induced PBMCs / CD14+ monocytes (Meso Scale); settings: 1 h pretreatment, 100 ng/mL LPS 18-24 h
Summary of the method: as §2

[6] = system: TNF-α; assay: TNF-α inhibition assay, LPS-induced PBMCs / CD14+ monocytes (Meso Scale); settings: 1 h pretreatment, 100 ng/mL LPS 18-24 h
Summary of the method: as §2

[7] = system: IL-2; assay: IL-2 fold-change assay, anti-CD3 stimulated PBMCs (Mesoscale); settings: PBMC, PBMCs on anti-human CD3, 24 h, fold difference from the DMSO control
Summary of the method: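 PBMCs (3-4 million cells/mL) stimulated on plates precoated with 1 μg/mL anti-human CD3 antibody, with compound, for 24 h. Supernatant IL-2 measured by Mesoscale. Result expressed as fold difference from DMSO control and reported in bins.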

[8] = system: MOLM-13 cells; assay: MOLM-13 cell viability assay (CellTiter-Glo); settings: Homo sapiens, MOLM-13, 72 h, 3 days, read-out: MOLM-13 Cell Viability % DMSO at 1 μM
Summary of the method: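 MOLM-13 cells at 2500 cells/well were exposed to compound for 3 days at 37 °C. Viability was read by CellTiter-Glo luminescence and expressed as % of DMSO control, binned A (<50%), B (50–<70%), C (70–<90%) or D (≥90%).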

[9] = target: T4, CDK9 (Homo sapiens, UniProt P50750); assay: CDK9 degradation assay (Western blot, MV-4-11 cells); settings: 6-8 h; for Dmax at 0.1 µM: MV4-11, 0.1 μM; for Dmax at 1 µM: MV4-11, 1 μM
T4 construct: Whole cell extracts were prepared using RIPA buffer; endogenous in cells; host or cells: MV-4-11
T4 sequence (P50750 whole entry): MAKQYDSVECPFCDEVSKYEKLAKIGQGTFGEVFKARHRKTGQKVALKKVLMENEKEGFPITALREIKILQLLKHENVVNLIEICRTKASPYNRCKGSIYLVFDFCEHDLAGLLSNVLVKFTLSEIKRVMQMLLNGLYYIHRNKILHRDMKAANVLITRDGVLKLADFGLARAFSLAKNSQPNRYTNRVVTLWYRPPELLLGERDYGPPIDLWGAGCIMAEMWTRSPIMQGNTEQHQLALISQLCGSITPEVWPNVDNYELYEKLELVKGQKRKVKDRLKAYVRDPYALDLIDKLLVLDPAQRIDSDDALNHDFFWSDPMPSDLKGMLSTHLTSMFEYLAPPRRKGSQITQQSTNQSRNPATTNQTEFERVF
Summary of the method: as §1

[10] = target: T5, CDK16 (Homo sapiens, UniProt Q00536); assay: CDK16 degradation assay (Western blot, MV-4-11 cells); settings: 6-8 h; for Dmax at 0.1 µM: MV4-11, 0.1 μM; for Dmax at 1 µM: MV4-11, 1 μM
T5 construct: Whole cell extracts were prepared using RIPA buffer; endogenous in cells; host or cells: MV-4-11
T5 sequence (Q00536 whole entry): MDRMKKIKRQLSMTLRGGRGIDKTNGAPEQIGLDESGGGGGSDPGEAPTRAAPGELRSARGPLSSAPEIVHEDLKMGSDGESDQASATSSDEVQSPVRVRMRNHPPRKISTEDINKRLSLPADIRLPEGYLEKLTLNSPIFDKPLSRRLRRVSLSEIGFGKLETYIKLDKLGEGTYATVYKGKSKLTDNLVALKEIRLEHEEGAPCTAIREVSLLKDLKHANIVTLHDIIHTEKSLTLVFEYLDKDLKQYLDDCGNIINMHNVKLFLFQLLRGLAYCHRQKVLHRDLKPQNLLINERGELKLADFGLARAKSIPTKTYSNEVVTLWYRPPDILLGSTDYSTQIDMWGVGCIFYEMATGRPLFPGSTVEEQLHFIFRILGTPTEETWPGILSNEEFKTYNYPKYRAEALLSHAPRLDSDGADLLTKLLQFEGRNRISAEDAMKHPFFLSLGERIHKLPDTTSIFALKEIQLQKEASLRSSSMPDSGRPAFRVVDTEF
Summary of the method: as §1

T1 sequence (Q13422 whole entry): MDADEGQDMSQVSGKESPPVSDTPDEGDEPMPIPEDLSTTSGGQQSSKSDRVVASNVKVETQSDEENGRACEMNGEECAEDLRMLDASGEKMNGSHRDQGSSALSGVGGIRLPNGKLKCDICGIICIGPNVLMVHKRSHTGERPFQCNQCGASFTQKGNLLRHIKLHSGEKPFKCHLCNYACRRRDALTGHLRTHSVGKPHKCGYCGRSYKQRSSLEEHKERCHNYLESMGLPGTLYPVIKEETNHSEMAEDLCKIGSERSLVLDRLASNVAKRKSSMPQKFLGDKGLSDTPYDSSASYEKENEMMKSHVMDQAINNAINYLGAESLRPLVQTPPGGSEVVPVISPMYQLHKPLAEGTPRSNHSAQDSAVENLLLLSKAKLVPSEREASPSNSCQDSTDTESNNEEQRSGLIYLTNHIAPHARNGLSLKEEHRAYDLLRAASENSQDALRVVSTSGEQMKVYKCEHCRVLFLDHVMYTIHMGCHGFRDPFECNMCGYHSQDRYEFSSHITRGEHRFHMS
T1 sequence (Q96SW2 whole entry): as the sequence (Q96SW2 whole entry) above
T1 sequence (Q16531 whole entry partner): as the sequence (Q16531 whole entry partner) above

Dmax at 1 µM [1] [%] | Dmax at 1 µM [2] [%] | Dmax at 1 µM [3] [%] | Dmax at 0.1 µM [9] [%] | Dmax at 1 µM [9] [%] | Dmax at 0.1 µM [10] [%] | Dmax at 1 µM [10] [%] | Compound | inhibition at 1 µM [4] [%] | inhibition at 1 µM [5] [%] | inhibition at 1 µM [6] [%] | fold induction at 1 µM [7] | viability at 1 µM [8] [%]
25 to 50 | 25 to 50 | 50 to 75 |  |  |  |  | Cn1ncc(-c2nc(N[C@H]3CC[C@H](NCCOCCOCCNCc4ccc(OCc5scc6c5CN([C@H]5CCC(=O)NC5=O)C6=O)cc4)CC3)ncc2Cl)c1CC1CC1 [Compound 67, (S)-3-(1-((4-(((2-(2-(2-(((1r,4r)-4-((5-chloro-4-(5-(cyclopropylmethyl)-1-methyl-1H-pyrazol-4-yl)pyrimidin-2-yl)amino)cyclohexyl)amino)ethoxy)ethoxy)ethyl)amino)methyl)phenoxy)methyl)-4-oxo-4H-thieno[3,4-c]pyrrol-5(6H)-yl)piperidine-2,6-dione] | > 90 | > 90 | > 90 | 0.5 to 1 | > 90
50 to 75 | 50 to 75 | ≥ 75 | 50 to 75 | ≥ 75 | < 25 | < 25 | CC(C)(C)c1cnc(CSc2cnc(NC(=O)C3CCN(CC(=O)NCCOCCOCCOCCNCC(=O)NCc4scc5c4CN(C4CCC(=O)NC4=O)C5=O)CC3)s2)o1 (stereo not shown) [Compound 41, N-(5-(((5-(tert-butyl)oxazol-2-yl)methyl)thio)thiazol-2-yl)-1-(1-(5-(2,6-dioxopiperidin-3-yl)-4-oxo-5,6-dihydro-4H-thieno[3,4-c]pyrrol-1-yl)-3,18-dioxo-8,11,14-trioxa-2,5,17-triazanonadecan-19-yl)piperidine-4-carboxamide] | > 90 | > 90 | 70 to 90 | 0.1 to 0.5 | 70 to 90
25 to 50 | 25 to 50 | 50 to 75 |  |  |  |  | Cn1ncc(-c2nc(N[C@H]3CC[C@H](NCC(=O)NCCCCNCC(=O)NCc4cc5c(s4)C(=O)N(C4CCC(=O)NC4=O)C5=O)CC3)ncc2F)c1CC1CC1 (stereo partly shown) [Compound 37, 2-(((1r,4r)-4-((4-(5-(cyclopropylmethyl)-1-methyl-1H-pyrazol-4-yl)-5-fluoropyrimidin-2-yl)amino)cyclohexyl)amino)-N-(4-((2-(((5-(2,6-dioxopiperidin-3-yl)-4,6-dioxo-5,6-dihydro-4H-thieno[2,3-c]pyrrol-2-yl)methyl)amino)-2-oxoethyl)amino)butyl)acetamide] | > 90 | > 90 | 70 to 90 | 0.1 to 0.5 | 50 to 70
50 to 75 | 25 to 50 | 50 to 75 | < 25 | ≥ 75 | 25 to 50 | < 25 | CC(C)(C)c1cnc(CSc2cnc(NC(=O)C3CCN(CC(=O)NCCOCCOCCNCC(=O)NCc4cc5c(s4)C(=O)N(C4CCC(=O)NC4=O)C5)CC3)s2)o1 (stereo not shown) [Compound 34, N-(5-(((5-(tert-butyl)oxazol-2-yl)methyl)thio)thiazol-2-yl)-1-(1-(5-(2,6-dioxopiperidin-3-yl)-6-oxo-5,6-dihydro-4H-thieno[2,3-c]pyrrol-2-yl)-3,15-dioxo-8,11-dioxa-2,5,14-triazahexadecan-16-yl)piperidine-4-carboxamide] | 70 to 90 | 70 to 90 | 70 to 90 | ≤ 0.1 | > 90
